Reference: patent US5922324A, “Propolis extract with improved water-solubility” (Kabushiki Kaisha Hayashibara Seibutsu Kagaku Kenkyujo, priority 1997, dated 1999)
Values after ≈ are worked out from the molar mass of the structure shown.

Experiments:
[1] = Confirmation of insolubilized substance C (HPLC of supernatant after 101-fold dilution); format: physicochemical
Description: A propolis mass was disrupted, injected into 3 columns and fed with 50 v/v % aqueous ethanol solution by counter-current extraction method to dissolve and extract the effective ingredients of propolis. The extract was filtered to obtain a liquid propolis extract containing about 20 w/w % dry solid in a yield of about 30% of the material propolis, d.s.b.
The pH of the sample was 5.0 when measured with a pH-meter. The sample was placed in a beaker and diluted with water by 101-fold into a dilute aqueous ethanol solution in the form of a white suspension which was then allowed to stand at 25° C. for an hour under gentle stirring conditions and centrifuged to obtain a supernatant. High-performance liquid chromatography (HPLC) was used to quantify the concentration of substance C in the supernatant according to the method as described in Bioscience, Biotechnology, and Biochemistry, Vol. 58, No. 5, pp. 945-946 (1994). As a control, the sample was diluted by 101-fold with ethanol in place of water.

[2] = Water-solubility of substance C in propolis extract (supernatant concentration); format: physicochemical
Procedure: The sample in Experiment 1 was mixed with an equal amount of 50 v/v % aqueous ethanol solution either with or without an adequate amount of sodium hydroxide, and the mixture with a pH 5.0 was adjusted to a pH of 5.2, 5.5, 5.8, 6.0, 6.2, 6.4, 6.8, 7.0, 7.2, 7.5 or 8.1 before prepared into an about 10 w/w % liquid propolis extract, d.s.b., as samples used in the following experiments.
After one-month standing at 25° C., the samples were tested similarly as in Experiments 2-(1) to 2-(4) and subjected to a sensory evaluation using 12 panels.

SMILES: CC(C)=CCc1cc(C=CC(=O)O)cc(CC=C(C)C)c1O [substance C, 3-[4-hydroxy-3,5-bis(3-methyl-2-butenyl)phenyl]-2-propenoic acid]
- Concentration of substance C in water dilution relative to control diluted with ethanol ([1]; 101-fold dilution): 0.06%
- solubility kinetic ([1]; dilute aqueous ethanol, organic solvent or mixture, 25° C., pH about 5.0 extract, 10 w/w % d.s.b. in 50 v/v % aqueous ethanol, diluted with water by about 100 folds, read-out: Concentration in which substance C dissolves in dilute aqueous ethanol solution): 0.03 µg/mL (≈ 0.0999 µM)
- Concentration of substance C in supernatant of dilution diluted with ethanol (Control) ([1]; diluted with ethanol by 101-fold, control): 46.7 ppm
- Solubilization of substance C on dilution with water (in words) ([1]; dilution with water into dilute aqueous ethanol solution): insolubilized most of substance C
- Amount of substance C of the sample contained in sediments collected by centrifugation ([1]; sediments dissolved in ethanol, after dilution with water): at least 99%
- Water-solubility of substance C (in words) ([2]; pH dependence): greatly increased when adjusted to a pH of over 5.5
- improvement of solubility of substance C in dilute aqueous ethanol solution ([2]; pH increased from about 5.0 to 5.5-7.0): 15-100 folds
